Measurements: ChEMBL document CHEMBL1148235, “Amidines as amide bond replacements in VLA-4 antagonists” (Bioorg Med Chem Lett, 2004)

Tests used:
[1] = Bioavailability in rat (dose 1 mg/kg i.v. and 2 mg/kg p.o.); format: ADME, organism-based; conditions: in vivo, po
[2] = Plasma clearance of compound in rats was evaluated; format: ADME, organism-based; conditions: rat, read-out: Clp
[3] = Dissociation constant was evaluated; format: physicochemical
[4] = Partition coefficient (logD); format: physicochemical; conditions: octanol/water
[5] = Inhibitory activity of compound against very late antigen 4 using VCAM-Ig ligand; parameters: species or system Rattus norvegicus
[6] = target: T1, Integrin alpha-4/beta-7 (Homo sapiens, UniProt P13612+P26010); assay: Inhibitory activity of compound against alpha4-beta7 integrin using MAdCAM-Ig ligand; format: protein-complex assay
T1 sequence (P13612 whole entry): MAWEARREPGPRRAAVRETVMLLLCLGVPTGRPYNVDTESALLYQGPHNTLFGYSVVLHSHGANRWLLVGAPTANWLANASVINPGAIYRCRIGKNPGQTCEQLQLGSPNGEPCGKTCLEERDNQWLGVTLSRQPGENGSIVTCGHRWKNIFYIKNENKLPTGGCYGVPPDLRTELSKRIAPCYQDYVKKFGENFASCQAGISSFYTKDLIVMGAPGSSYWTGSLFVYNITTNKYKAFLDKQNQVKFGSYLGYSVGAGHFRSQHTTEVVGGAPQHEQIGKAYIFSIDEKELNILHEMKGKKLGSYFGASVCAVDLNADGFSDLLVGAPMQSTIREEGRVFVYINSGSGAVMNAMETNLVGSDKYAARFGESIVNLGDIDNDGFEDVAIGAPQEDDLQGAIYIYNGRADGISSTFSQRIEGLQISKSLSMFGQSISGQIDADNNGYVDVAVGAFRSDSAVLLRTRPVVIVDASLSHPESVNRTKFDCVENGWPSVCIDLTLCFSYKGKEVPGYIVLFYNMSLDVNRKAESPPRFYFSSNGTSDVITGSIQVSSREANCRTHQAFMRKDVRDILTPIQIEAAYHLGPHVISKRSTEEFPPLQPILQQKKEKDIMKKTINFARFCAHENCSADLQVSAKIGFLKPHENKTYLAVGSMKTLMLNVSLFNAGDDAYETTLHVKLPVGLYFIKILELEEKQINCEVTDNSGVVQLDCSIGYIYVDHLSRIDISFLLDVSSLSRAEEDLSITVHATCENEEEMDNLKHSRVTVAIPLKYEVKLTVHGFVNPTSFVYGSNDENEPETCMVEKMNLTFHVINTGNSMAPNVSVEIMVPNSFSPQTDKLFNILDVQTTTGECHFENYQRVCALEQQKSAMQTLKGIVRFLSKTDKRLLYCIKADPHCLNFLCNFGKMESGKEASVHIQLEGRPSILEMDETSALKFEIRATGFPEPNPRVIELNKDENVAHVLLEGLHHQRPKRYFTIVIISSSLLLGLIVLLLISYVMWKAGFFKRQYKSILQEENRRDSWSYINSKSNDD
T1 sequence (P26010 whole entry): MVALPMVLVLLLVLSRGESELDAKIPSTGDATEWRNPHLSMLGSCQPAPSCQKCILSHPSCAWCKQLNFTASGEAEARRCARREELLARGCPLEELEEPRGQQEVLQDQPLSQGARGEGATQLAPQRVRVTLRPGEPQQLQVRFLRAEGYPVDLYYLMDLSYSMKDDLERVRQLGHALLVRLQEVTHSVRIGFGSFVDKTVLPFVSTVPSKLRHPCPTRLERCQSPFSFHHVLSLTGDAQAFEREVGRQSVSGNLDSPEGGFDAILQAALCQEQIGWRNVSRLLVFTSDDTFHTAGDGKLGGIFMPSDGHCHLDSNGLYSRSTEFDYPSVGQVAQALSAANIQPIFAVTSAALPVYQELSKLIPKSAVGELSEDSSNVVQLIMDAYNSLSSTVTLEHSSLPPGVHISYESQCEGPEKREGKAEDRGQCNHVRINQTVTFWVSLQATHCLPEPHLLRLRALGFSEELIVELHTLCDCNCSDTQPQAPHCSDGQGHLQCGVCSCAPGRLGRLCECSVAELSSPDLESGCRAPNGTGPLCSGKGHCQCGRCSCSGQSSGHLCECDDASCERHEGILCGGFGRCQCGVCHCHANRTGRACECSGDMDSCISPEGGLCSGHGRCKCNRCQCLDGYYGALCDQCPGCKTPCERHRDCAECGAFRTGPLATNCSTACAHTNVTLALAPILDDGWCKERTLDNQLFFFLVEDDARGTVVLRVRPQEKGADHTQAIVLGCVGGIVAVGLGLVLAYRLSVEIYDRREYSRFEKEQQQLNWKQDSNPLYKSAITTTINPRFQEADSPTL

[7] = target: Integrin alpha-4/beta-1 (Homo sapiens) (UniProt P05556+P13612); assay: Inhibition of VCAM-Ig binding to very late activating antigen-4 (VLA-4) at 10 uM; format: protein-complex assay

| SMILES | bioavailability [1] | clearance [2] | pKa [3] | logD [4] | IC50 [5] | IC50 [6] | inhibition [7] |
| --- | --- | --- | --- | --- | --- | --- | --- |
| COc1cccc(OC)c1-c1ccc(C[C@@H](C(=O)O)N(C)C(=O)[C@@H]2CCN2S(=O)(=O)c2cc(Cl)cc(Cl)c2)cc1 | – | – | – | – | 350 nM | – | – |
| COc1cccc(OC)c1-c1ccc(C[C@H](/N=C(\N)[C@@H]2CCN2S(=O)(=O)c2cc(Cl)cc(Cl)c2)C(=O)O)cc1 | 0.3% | 90 mL/min/kg | – | 4.1 | 0.05 nM | 16 nM | – |
| COc1cccc(OC)c1-c1ccc(C[C@@H]2N=C([C@@H]3CCN3S(=O)(=O)c3ccccc3)NNC2=O)cc1 | 3.3% | 86 mL/min/kg | – | 3.2 | 58 nM | – | – |
| COc1cccc(OC)c1-c1ccc(C[C@H](/N=C(\NCC2CCOOCC2)[C@@H]2CCN2S(=O)(=O)c2ccccc2)C(=O)O)cc1 | 0.6% | 67 mL/min/kg | – | 2.6 | 0.28 nM | 43 nM | – |
| COc1cccc(OC)c1-c1ccc(C[C@H](NC[C@@H]2CCCN2S(=O)(=O)c2cc(Cl)cc(Cl)c2)C(=O)O)cc1 | – | – | – | – | 140 nM | 8400 nM | – |
| COc1cccc(OC)c1-c1ccc(C[C@@H]2/N=C(/[C@@H]3CCN3S(=O)(=O)c3ccccc3)NCc3nccn3C2=O)cc1 | 0.6% | 382 mL/min/kg | – | – | – | 4090 nM | 85% |
| COc1cccc(OC)c1-c1ccc(C[C@H](NC(=O)[C@@H]2CCN2S(=O)(=O)c2cc(Cl)cc(Cl)c2)C(=O)O)cc1 | – | 102 mL/min/kg | – | 4 | 0.08 nM | – | – |
| COc1cccc(OC)c1-c1ccc(C[C@H](NC(=O)[C@]2(C)CCN2S(=O)(=O)c2cc(Cl)cc(Cl)c2)C(=O)O)cc1 | – | 110 mL/min/kg | – | – | 0.07 nM | – | – |
| COc1cccc(OC)c1-c1ccc(C[C@H](OC(=O)[C@@H]2CCN2S(=O)(=O)c2cc(Cl)cc(Cl)c2)C(=O)O)cc1 | – | – | – | – | 15 nM | 3000 nM | – |
| CN/C(=N\[C@@H](Cc1ccc(-c2c(OC)cccc2OC)cc1)C(=O)O)[C@@H]1CCN1S(=O)(=O)c1cc(Cl)cc(Cl)c1 | 0.8% | 85 mL/min/kg | 10.2 | 2.7 | 0.05 nM | 21 nM | – |

Other lines, results leading:

| bioavailability [1] | clearance [2] | pKa [3] | logD [4] | IC50 [5] | IC50 [6] | inhibition [7] | SMILES |
| --- | --- | --- | --- | --- | --- | --- | --- |
| 9.3% | 79 mL/min/kg | < 4 | 2.8 | 0.17 nM | 35 nM | – | CON/C(=N\[C@@H](Cc1ccc(-c2c(OC)cccc2OC)cc1)C(=O)O)[C@@H]1CCN1S(=O)(=O)c1ccccc1 |
| 0.2% | 61 mL/min/kg | – | – | 0.1 nM | 19 nM | – | COc1cccc(OC)c1-c1ccc(C[C@H](/N=C(\N)[C@@H]2CCN2S(=O)(=O)c2ccccc2)C(=O)O)cc1 |
| 1.8% | 45 mL/min/kg | – | 3.3 | 0.13 nM | 27 nM | – | COc1cccc(OC)c1-c1ccc(C[C@H](/N=C(\NCC(F)(F)F)[C@@H]2CCN2S(=O)(=O)c2ccccc2)C(=O)O)cc1 |
| 0% | 81 mL/min/kg | – | – | 0.28 nM | 65 nM | – | COCCN/C(=N\[C@@H](Cc1ccc(-c2c(OC)cccc2OC)cc1)C(=O)O)[C@@H]1CCN1S(=O)(=O)c1ccccc1 |
| – | – | – | 2.3 | 0.14 nM | 98 nM | – | COc1cccc(OC)c1-c1ccc(C[C@H](/N=C(\NO)[C@@H]2CCN2S(=O)(=O)c2ccccc2)C(=O)O)cc1 |
| 0% | 64 mL/min/kg | – | 3.7 | 0.21 nM | 120 nM | – | COc1cccc(OC)c1-c1ccc(C[C@H](/N=C(\NCC(C)(C)C)[C@@H]2CCN2S(=O)(=O)c2ccccc2)C(=O)O)cc1 |
| 3% | 93 mL/min/kg | -2 | 2.5 | 0.09 nM | 4.1 nM | – | COc1cccc(OC)c1-c1ccc(C[C@H](/N=C(\NC#N)[C@@H]2CCN2S(=O)(=O)c2ccccc2)C(=O)O)cc1 |
| 1.4% | 107 mL/min/kg | – | 2.6 | 0.1 nM | 78 nM | – | COc1cccc(OC)c1-c1ccc(C[C@H](NC(=O)[C@@H]2CCN2S(=O)(=O)c2ccccc2)C(=O)O)cc1 |
| – | – | – | 2.8 | 0.15 nM | 35 nM | – | COc1cccc(OC)c1-c1ccc(C[C@H](/N=C(\NCc2ccccn2)[C@@H]2CCN2S(=O)(=O)c2ccccc2)C(=O)O)cc1 |
| 0.7% | 81 mL/min/kg | 10.5 | 2.4 | 0.12 nM | 40 nM | – | CN/C(=N\[C@@H](Cc1ccc(-c2c(OC)cccc2OC)cc1)C(=O)O)[C@@H]1CCN1S(=O)(=O)c1ccccc1 |
| – | – | – | 1.9 | 0.17 nM | 78 nM | – | COc1cccc(OC)c1-c1ccc(C[C@H](/N=C(\NCC(=O)O)[C@@H]2CCN2S(=O)(=O)c2ccccc2)C(=O)O)cc1 |
| 1.6% | 103 mL/min/kg | -2 | 2.4 | 0.07 nM | 2.2 nM | – | COc1cccc(OC)c1-c1ccc(C[C@H](/N=C(\NS(C)(=O)=O)[C@@H]2CCN2S(=O)(=O)c2ccccc2)C(=O)O)cc1 |
